Measurements from patent US20050002947A1, “In vitro bioassay employing laboratory-cultured larvae of strongyloides stercoralis” (University of the West Indies, priority 2003, published 2005).

Experiments:
S. stercoralis larvae [1] = experiment: Dye exclusion test using eosin to tell live from killed larvae; type: cell-based; conditions: for Percentage of S. stercoralis larvae stained using eosin in vitro: n~100
Protocol: Dye exclusion tests have been used successfully to indicate viability in parasitic platyhelminths, and similar testing can be applied to S. stercoralis larvae. Use of 0.01% v/v eosin in LNS (ELNS) in a dye exclusion test indicated death of larvae in less than 10 minutes, and 0.01-0.03% ELNS had no effect on healthy individuals. The larvae typically survive for more than 100 hours in ELNS. Accordingly, LNS is a preferred medium in which to maintain larvae harvested from multiplication in coproculture and ELNS is a preferred medium for evaluating the effects of physiologically active materials, such as candidate anthelmintic materials, on the larvae. However, the skilled practitioner will recognize that any medium in which the larvae can be maintained for a convenient period of time, and any appropriate vital staining dye, can be used in the method of the invention.
The results of a comparative test to establish the ability of a dye exclusion procedure using eosin to discriminate between live and killed larvae are presented in Table 1 below. FIG. 1 is a photomicrograph of a microscopic inspection field showing a number of larvae of S. stercoralis after exposure to an anthelmintic agent.

S. stercoralis larvae [2] = experiment: Larval tolerance to methanol (solvent); type: cell-based, Strongyloides stercoralis; conditions: aqueous solutions containing methanol; cumulative percentage mortality
Protocol: Active constituents of plants are typically extracted in organic solvents such as methanol. […] Studies of methanol toxicity for S. stercoralis indicate that a methanol concentration exceeding 5 μg/100 mL LNS (>50 times that detected in plant extracts using NMR analyses) is required to exert any significant effect on larval mortality.

S. stercoralis larvae [3] = experiment: Larval tolerance to emulsifiers; type: cell-based
From the text: Triton® X-100 (octylphenoxy polyethoxyethanol) is recommended for use as an emulsifier, where necessary. A concentration of 1-4% in 0.01% ELNS had no effect on larval mobility or mortality.
Other suitable surfactants for dispersing plant extracts can be developed by routine testing according to the described procedures.

Molecule: O=C1OC2(c3ccccc31)c1cc(Br)c(O)c(Br)c1Oc1c2cc(Br)c(O)c1Br [eosin]
- Time in which the dye exclusion test indicated death of larvae (S. stercoralis larvae [1]; 0.01% v/v eosin in LNS): less than 10 minutes
- Percentage of S. stercoralis larvae stained using eosin in vitro (S. stercoralis larvae [1]; heat killed larvae (60° C./30 min), eosin 0.01% (w/v), 0 min): 0%
- Percentage of S. stercoralis larvae stained using eosin in vitro (S. stercoralis larvae [1]; heat killed larvae (60° C./30 min), eosin 0.01% (w/v), 10 min): 100%
- Percentage of S. stercoralis larvae stained using eosin in vitro (S. stercoralis larvae [1]; heat killed larvae (60° C./30 min), eosin 0.03% (w/v), 0 min): 0%
- Percentage of S. stercoralis larvae stained using eosin in vitro (S. stercoralis larvae [1]; heat killed larvae (60° C./30 min), eosin 0.03% (w/v), 10 min): 100%
- Percentage of S. stercoralis larvae stained using eosin in vitro (S. stercoralis larvae [1]; living larvae, eosin 0.01% (w/v), 0 min): 0%
- Percentage of S. stercoralis larvae stained using eosin in vitro (S. stercoralis larvae [1]; living larvae, eosin 0.01% (w/v), 10 min): 1%
- Percentage of S. stercoralis larvae stained using eosin in vitro (S. stercoralis larvae [1]; living larvae, eosin 0.01% (w/v), 20 min): 1%
- Percentage of S. stercoralis larvae stained using eosin in vitro (S. stercoralis larvae [1]; living larvae, eosin 0.01% (w/v), 30 min): 2%
- Percentage of S. stercoralis larvae stained using eosin in vitro (S. stercoralis larvae [1]; living larvae, eosin 0.01% (w/v), 40 min): 2%
- Percentage of S. stercoralis larvae stained using eosin in vitro (S. stercoralis larvae [1]; living larvae, eosin 0.01% (w/v), 50 min): 2%
- Percentage of S. stercoralis larvae stained using eosin in vitro (S. stercoralis larvae [1]; living larvae, eosin 0.01% (w/v), 60 min): 2%
- Percentage of S. stercoralis larvae stained using eosin in vitro (S. stercoralis larvae [1]; living larvae, eosin 0.01% (w/v), column headed only "(min)", after 60): 2%
- Percentage of S. stercoralis larvae stained using eosin in vitro (S. stercoralis larvae [1]; living larvae, eosin 0.03% (w/v), 0 min): 0%
- Percentage of S. stercoralis larvae stained using eosin in vitro (S. stercoralis larvae [1]; living larvae, eosin 0.03% (w/v), 10 min): 1%
- Percentage of S. stercoralis larvae stained using eosin in vitro (S. stercoralis larvae [1]; living larvae, eosin 0.03% (w/v), 20 min): 1%
- Percentage of S. stercoralis larvae stained using eosin in vitro (S. stercoralis larvae [1]; living larvae, eosin 0.03% (w/v), 30 min): 2%
- Percentage of S. stercoralis larvae stained using eosin in vitro (S. stercoralis larvae [1]; living larvae, eosin 0.03% (w/v), 40 min): 2%
- Percentage of S. stercoralis larvae stained using eosin in vitro (S. stercoralis larvae [1]; living larvae, eosin 0.03% (w/v), 50 min): 2%
- Percentage of S. stercoralis larvae stained using eosin in vitro (S. stercoralis larvae [1]; living larvae, eosin 0.03% (w/v), 60 min): 2%
- Percentage of S. stercoralis larvae stained using eosin in vitro (S. stercoralis larvae [1]; living larvae, eosin 0.03% (w/v), column headed only "(min)", after 60): 3%

Molecule: CO [methanol]
- Methanol concentration required to exert any significant effect on larval mortality (S. stercoralis larvae [2]): exceeding 5 μg/100 mL LNS

Molecule: Tween® 20
- Toxicity to S. stercoralis larvae (S. stercoralis larvae [3]; 0.1-0.4% in 0.1% ELNS): toxic

Molecule: octylphenoxy polyethoxyethanol [Triton® X-100]
- Effect on larval mobility (S. stercoralis larvae [3]; 1-4% in 0.01% ELNS): no effect
- Effect on larval mortality (S. stercoralis larvae [3]; 1-4% in 0.01% ELNS): no effect
